Patent US6627653B2, “Anticonvulsant derivatives useful for the treatment of depression” (Ortho-McNeil Pharmaceutical, Inc., priority 2000, dated 2003)
Where two headings read alike, the source gives them in different places.

How the values were obtained:
[1] = Clinical case study, Example 2: topiramate add-on therapy; type: in vivo, human; settings: for previous pharmacological treatment of patient's depression, outcome: treatment history of the Example 2 patient
Protocol: Initially the patient was started on topiramate add-on therapy at 25 mg/day, with increased dosage to 150 mg/day over the course of one month, in response to the patient's clinical behavior (the patient experienced suicidal ideation). One month later, the topiramate therapy was further increased to 300 mg/day, with the patient also taking 20 mg/day methylphenidate and 150 mg/day venlafaxine.

[2] = several rodent models of epilepsy; cited from earlier work
[3] = animal model of kindled epilepsy; cited from earlier work
[4] = adjunctive therapy or monotherapy; cited from earlier work
[5] = Clinical case study, Example 1: topiramate added to existing pharmacotherapy; type: in vivo, human
Protocol: In the first case, the patient was a person who had suffered from depression for 25 years.
Topiramate was prescribed for the patient as add-on therapy to existing treatment of venlafaxine at 225 mg/day and mirtazapine at 30 mg/day. Topiramate treatment was initiated at 25 mg/day, with increased dosage to 150 mg/day. […] After six months, mirtazapine was withdrawn and topiramate daily dosage increased to 200 mg/day.
Following one year, topiramate and venlafaxine were withdrawn because of a surgical procedure. […] The patient was subsequently restarted on topiramate at 300 mg/day.

Row | SMILES | previous pharmacological treatment of patient's depression, outcome [1] | block of seizures [2] | block of seizures [3] | patient-reported state ([1]; after three month of treatment) | mood state ([1]; at eight months of therapy, venlafaxine 150 mg/day and topiramate 300 mg/day) | clinical rating of depression ([1]; topiramate 300 mg/day with methylphenidate 20 mg/day and venlafaxine 150 mg/day, about two months) | efficacy in treating seizures [4] | clinical evaluation of depression ([5]; after eight months, topiramate 300 mg/day) | clinical evaluation of depression ([5]; after six months, mirtazapine withdrawn, topiramate 200 mg/day) | clinical evaluation of depression ([5]; after two months, topiramate 150 mg/day add-on to venlafaxine 225 mg/day and mirtazapine 30 mg/day) | patient-reported state after restart ([5]; restarted on topiramate 300 mg/day after relapse, following six months of treatment)
1 | N[C@@H]1C[C@H]1c1ccccc1 (racemic) [tranylcypromine] | unsuccessful |  |  |  |  |  |  |  |  |  | 
2 | CN(C)CCC=C1c2ccccc2CCc2ccccc21 [amitriptyline] | unsuccessful |  |  |  |  |  |  |  |  |  | 
3 | CC1(C)O[C@@H]2[C@@H](CO[C@@]3(COS(N)(=O)=O)OC(C)(C)O[C@@H]23)O1 [topiramate, 2,3:4,5-bis-O-(1-methylethylidene)-β-D-fructopyranose sulfamate] |  | effectively block seizures | effectively block seizures | never felt so well | normothymic | much improved | effective | very much improved | very much improved | very mild depressive | feeling very well
